Results from patent publication US7220750B2, “Bicyclic heterocycles, pharmaceutical compositions containing these compounds, their use and processes for preparing them” (Boehringer Ingelheim Pharma GmbH & Co. KG, priority 1999, dated 2007).

Test system: not given
Experiment: not given
Conditions: not given
In the case of `CCN(CC)CC=CC(=O)Nc1cc2c(Nc3ccc(F)c(Cl)c3)ncnc2cc1OCC1CC1` [Example 3, 4-[(3-Chloro-4-fluorophenyl)amino]-6-{[4-(N,N-diethylamino)-1-oxo-2-buten-1-yl]amino}-7-cyclopropylmethoxyquinazoline], the melting point is reported as ~ 145 °C (dec.).

Molecular target: T1, human EGF-R (Homo sapiens, UniProt P00533)
T1 construct: expressed in transfected cells; host or cells: F/L-HERc cells (murine IL-3-dependent FDC-P1 line transduced with LXSN retroviral vector carrying human EGF-R cDNA; packaging line GP+E86)
T1 sequence (P00533 25-1210): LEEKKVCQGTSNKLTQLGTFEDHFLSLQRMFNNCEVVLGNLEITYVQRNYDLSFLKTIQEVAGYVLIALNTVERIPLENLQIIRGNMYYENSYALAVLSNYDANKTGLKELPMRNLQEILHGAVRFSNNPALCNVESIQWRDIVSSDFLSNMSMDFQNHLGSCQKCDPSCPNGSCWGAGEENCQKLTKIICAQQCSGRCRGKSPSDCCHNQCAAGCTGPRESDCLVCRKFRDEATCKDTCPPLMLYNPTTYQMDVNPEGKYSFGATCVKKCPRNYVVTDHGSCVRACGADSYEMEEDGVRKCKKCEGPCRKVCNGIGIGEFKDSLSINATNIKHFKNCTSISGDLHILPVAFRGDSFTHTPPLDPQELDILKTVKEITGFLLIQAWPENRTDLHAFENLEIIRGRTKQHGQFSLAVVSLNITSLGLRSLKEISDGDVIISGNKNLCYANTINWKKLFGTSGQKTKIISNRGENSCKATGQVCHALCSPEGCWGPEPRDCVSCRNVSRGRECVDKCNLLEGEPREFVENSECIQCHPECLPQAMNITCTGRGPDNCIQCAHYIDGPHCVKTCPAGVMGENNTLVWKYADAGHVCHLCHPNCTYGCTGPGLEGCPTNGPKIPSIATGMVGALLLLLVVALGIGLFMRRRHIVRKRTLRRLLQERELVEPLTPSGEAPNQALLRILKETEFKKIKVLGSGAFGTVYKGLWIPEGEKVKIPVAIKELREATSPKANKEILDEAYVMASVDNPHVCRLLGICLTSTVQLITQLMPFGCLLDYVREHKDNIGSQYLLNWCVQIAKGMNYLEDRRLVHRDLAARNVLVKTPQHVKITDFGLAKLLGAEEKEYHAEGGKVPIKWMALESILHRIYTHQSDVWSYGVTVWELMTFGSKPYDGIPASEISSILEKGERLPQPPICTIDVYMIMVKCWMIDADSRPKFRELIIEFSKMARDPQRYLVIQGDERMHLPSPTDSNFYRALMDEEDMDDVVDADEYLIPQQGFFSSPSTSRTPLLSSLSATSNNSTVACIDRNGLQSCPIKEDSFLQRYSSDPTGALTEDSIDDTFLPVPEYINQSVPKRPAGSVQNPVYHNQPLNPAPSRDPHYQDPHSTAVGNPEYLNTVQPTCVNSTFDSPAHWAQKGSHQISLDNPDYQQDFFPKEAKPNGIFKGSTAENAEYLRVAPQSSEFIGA
Experiment: Inhibition of EGF-dependent proliferation of F/L-HERc cells (Cell Titer 96 assay)
Type: cell-based
Conditions: F/L-HERc cells (murine IL-3-dependent line expressing human EGF-R), stimulated with EGF 20 ng/ml, 48 hours
From the text: A cell line of murine origin dependent on interleukin-3-(IL-3) which was genetically modified to express functional human EGF-R was used here. The proliferation of these cells known as F/L-HERc can therefore be stimulated either by murine IL-3 or by EGF (cf. T. von Rüden et al., EMBO J. 7, 2749–2756 (1988) and J. H Pierce et al., Science 239, 628–631 (1988)).
The starting material used for the F/L-HERc cells was the cell line FDC-P1, the production of which has been described by T. M. Dexter et al., J. Exp. Med. 152, 1036–1047 (1980). Alternatively, however, other growth-factor-dependent cells may also be used (cf., for example, J. H. Pierce et al., Science 239, 628–631 (1988); H. Shibuya et al., Cell 70, 57–67 (1992); and W. S. Alexander et al., EMBO J. 10, 3683–3691 (1991)). For expressing the human EGF-R cDNA (cf. Ullrich, A. et al. in Nature 309, 418–425 (1984)) recombinant retroviruses were used as described by T. von Rüden et al., EMBO J. 7, 2749–2756 (1988), except that the retroviral vector LXSN (cf. A. D. Miller et al., BioTechniques 7, 980–990 (1989)) was used for the expression of the EGF-R cDNA and the line GP+E86 (cf. D. Markowitz et al., J. Virol. 62, 1120–1124 (1988)) was used as the packaging cell.
F/L-HERc cells were cultivated in RPMI/1640 medium (BioWhittaker), supplemented with 10% fetal calf serum (FCS, Boehringer Mannheim), 2 mM glutamine (BioWhittaker), standard antibiotics and 20 ng/ml of human EGF (Promega), at 37° C. and 5% CO2. In order to investigate the inhibitory activity of the compounds according to the invention, 1.5×10^4 cells per well were cultivated in triplicate in 96-well dishes in the above medium (200 μl), the cell proliferation being stimulated with either EGF (20 ng/ml) or murine IL-3. The IL-3 used was obtained from culture supernatants of the cell line X63/0 mIL-3 (cf. H. Karasuyama et al., Eur. J. Immunol. 18, 97–104 (1988)). The compounds according to the invention were dissolved in 100% dimethylsulfoxide (DMSO) and added to the cultures in various dilutions, the maximum DMSO concentration being 1%. The cultures were incubated for 48 hours at 37° C.
In order to determine the inhibitory activity of the compounds according to the invention the relative cell number was measured in O.D. units using the Cell Titer 96™ Aqueous Non-Radioactive Cell Proliferation Assay (Promega). The relative cell number was calculated as a percentage of the control (F/LHERc cells without inhibitor) and the concentration of active substance which inhibits the proliferation of the cells by 50% (IC50) was derived therefrom.
`C=CC(=O)Nc1cc2c(Nc3ccc(F)c(Cl)c3)ncnc2cc1OCCCC1CCN(C)CC1` [1(7), 4-[(3-Chloro-4-fluorophenyl)amino]-7-[3-(1-methylpiperidin-4-yl)propyloxy]-6-[(vinylcarbonyl)amino]quinazoline] gave an IC50 of less than 0.5 nM.
With `CC#CC(=O)Nc1cc2c(Nc3cccc(Br)c3)ncnc2cc1OCCCC1CCN(C)CC1` [2(3), 4-[(3-Bromophenyl)amino]-7-[3-(1-methylpiperidin-4-yl)propyloxy]-6-[(1-oxo-2-butyn-1-yl)amino]quinazoline] the IC50 was 0.35 nM.
Work on `O=C(C=CCN1CCOCC1)Nc1cc2c(Nc3ccc(F)c(Cl)c3)ncnc2cc1OCC1CC1` [3(1), 4-[(3-Chloro-4-fluorophenyl)amino]-6-{[4-(morpholin-4-yl)-1-oxo-2-buten-1-yl]amino}-7-cyclopropylmethoxyquinazoline] yielded an IC50 of 0.2 nM.
Molecule `C=CC(=O)Nc1cc2c(Nc3cccc(Br)c3)ncnc2cc1OCCCC1CCN(C)CC1` [Example 1, 4-[(3-Bromophenyl)amino]-7-[3-(1-methylpiperidin-4-yl)propyloxy]-6-[(vinylcarbonyl)amino]quinazoline] has an IC50 of less than 0.35 nM.
For `CCN(CC)CC=CC(=O)Nc1cc2c(Nc3ccc(F)c(Cl)c3)ncnc2cc1OCC1CC1` [Example 3, 4-[(3-Chloro-4-fluorophenyl)amino]-6-{[4-(N,N-diethylamino)-1-oxo-2-buten-1-yl]amino}-7-cyclopropylmethoxyquinazoline], the IC50 was 5 nM.
